Where a SMILES comes first, the peptide text is derived from it. Bridges are numbered along the chain shown (N, C = ends). [ ]: non-standard residue; d: D form. The star is where a group is joined. hPhe(3-Cl-4-CF3) = N[C@@H](CCc1ccc(C(F)(F)F)c(Cl)c1)C(=O)O; NPrPhe(4-CF3) = CCCN[C@@H](Cc1ccc(C(F)(F)F)cc1)C(=O)O; NMeGly(cPent) = CN[C@H](C(=O)O)C1CCCC1; Hyp = O=C(O)[C@@H]1C[C@@H](O)CN1; Gly(cBu) = N[C@H](C(=O)O)C1CCC1; NMeD = CN[C@@H](CC(=O)O)C(=O)O; NMeL = CN[C@@H](CC(C)C)C(=O)O; Morpholide = C1CN(*)CCO1; NMeA = CN[C@@H](C)C(=O)O; Ac5c = NC1(C(=O)O)CCCC1; Aze = O=C(O)[C@@H]1CCN1; NEtG = CCNCC(=O)O; Sar = CNCC(=O)O
Key:
[1] = target: GDP-bound NRAS wild-type protein (Homo sapiens, UniProt P01111); test: Binding to NRAS by surface plasmon resonance (SPR), KD and KD ratio to KRAS
Chain of GDP-bound NRAS wild-type protein (P01111 whole entry): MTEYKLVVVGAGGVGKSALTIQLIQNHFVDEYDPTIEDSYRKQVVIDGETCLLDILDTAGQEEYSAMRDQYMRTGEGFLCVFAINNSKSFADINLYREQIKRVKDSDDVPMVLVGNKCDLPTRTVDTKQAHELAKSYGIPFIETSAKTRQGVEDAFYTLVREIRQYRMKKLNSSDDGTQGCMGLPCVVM
In short: (§1)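 Captured GDP-RAS (~100–300 RU) was exposed to increasing compound concentrations, 75 s per step, in running buffer with 10 µM GDP, 10 mM MgCl2 and 4% DMSO at pH 7.4.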

HRAS wild-type protein = HRAS wild-type protein (Homo sapiens, UniProt P01112); test: Binding to HRAS by surface plasmon resonance (SPR), KD and KD ratio to KRAS
Chain of HRAS wild-type protein (P01112 whole entry): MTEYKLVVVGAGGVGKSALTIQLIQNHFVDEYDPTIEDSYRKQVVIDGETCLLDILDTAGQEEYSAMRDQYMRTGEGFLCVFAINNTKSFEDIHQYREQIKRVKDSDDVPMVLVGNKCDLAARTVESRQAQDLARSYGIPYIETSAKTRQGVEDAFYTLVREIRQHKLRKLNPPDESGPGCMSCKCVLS
In short: as §1

[2] = system: human lung cancer strain NCI-H441; assay type: cell-based
In short: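 Step one: dispense the test compound in serial DMSO dilutions. Step three: add the reagent and measure […].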

[3] = ratio of KD for GDP-bound NRAS wild-type protein to KD for KRAS
[4] = ratio of KD for HRAS wild-type protein to KD for KRAS
[5] = ratio of the KD value with respect to GDP-bound NRAS wild-type protein to the KD value with respect to KRAS
[6] = ratio of the KD value with respect to HRAS wild-type protein to the KD value with respect to KRAS
[7] = ratio of KD value for GDP-bound NRAS wild-type protein to KD value for KRAS (SPR)
[8] = ratio of KD value for HRAS wild-type protein to KD value for KRAS (SPR)

## CCCN1C(=O)CN(C)C(=O)CN(CC)C(=O)[C@H]([C@@H](C)CC)NC(=O)[C@H](CC(C)C)N(C)C(=O)C[C@@H](C(=O)N2CCOCC2)NC(=O)[C@H](C2CCCC2)N(C)C(=O)C2(CCCC2)NC(=O)[C@@H]2C[C@@H](OCC)CN2C(=O)[C@H](CCc2ccc(C(F)(F)F)c(Cl)c2)NC(=O)CN(C)C(=O)[C@@H]1Cc1ccc(C(F)(F)F)cc1 [PP0335] ([NMeL]I[NEtG][Sar][NPrPhe(4-CF3)][Sar][hPhe(3-Cl-4-CF3)][Hyp](Et)[Ac5c][NMeGly(cPent)]D-Morpholide; lactam N-11)
[1]; [3]
  NRAS /KRAS: B (a compound having 3 or more and less than 10 is denoted as B)
HRAS wild-type protein; [4]
  HRAS /KRAS: C (A compound having a KD ratio of 0.1 or more and less than 3 is denoted as C)
[2]
  IC50: 41.7 nM

## CCO[C@@H]1C[C@H]2C(=O)NC3(CCC3)C(=O)N(C)[C@@H](C3CCCC3)C(=O)N(C)[C@H](C(=O)N3CCOCC3)CC(=O)N(C)[C@@H](CC(C)C)C(=O)N[C@@H]([C@@H](C)CC)C(=O)N3CC[C@H]3C(=O)N(C)[C@H]3CC(C)=CCN(C3=O)[C@@H](Cc3ccc(C(F)(F)F)cc3)C(=O)N(C)CC(=O)N[C@@H](CCc3cc(F)c(C(F)(F)F)c(F)c3)C(=O)N2C1 [PP1040]
[1]; [3]
  NRAS /KRAS: C (A compound having a KD ratio of 0.1 or more and less than 3 is denoted as C)
HRAS wild-type protein; [4]
  HRAS /KRAS: C (A compound having a KD ratio of 0.1 or more and less than 3 is denoted as C)
[2]
  IC50: 18.7 nM

## CCCN1C(=O)[C@@H]2CCN2C(=O)[C@H](C)N(C)C(=O)[C@H]([C@@H](C)CC)NC(=O)[C@H](CC(C)C)N(C)C(=O)C[C@@H](C(=O)N(C)C)N(C)C(=O)[C@H](C2CCCC2)N(C)C(=O)C2(CCCC2)NC(=O)[C@@H]2C[C@@H](OCC)CN2C(=O)[C@H](CCc2ccc(C(F)(F)F)c(Cl)c2)NC(=O)CN(C)C(=O)[C@@H]1Cc1ccc(C(F)(F)F)cc1 [PP0438] ([NMeL]I[NMeA][Aze][NPrPhe(4-CF3)][Sar][hPhe(3-Cl-4-CF3)][Hyp](Et)[Ac5c][NMeGly(cPent)][NMeD]-NMe2; lactam N-11)
[1]; [5]
  NRAS /KRAS: C (A compound having a KD ratio of 0.1 or more and less than 3 is denoted as C)
HRAS wild-type protein; [6]
  HRAS /KRAS: C (A compound having a KD ratio of 0.1 or more and less than 3 is denoted as C)
[2]
  IC50: 1 nM

## CC[C@H](C)[C@@H]1NC(=O)[C@H](COC)N(C)C(=O)C[C@@H](C(=O)N(C)C)N(C)C(=O)[C@H](C2CCCC2)N(C)C(=O)C2(CC(C)(C)C2)NC(=O)[C@@H]2CCCCN2C(=O)[C@H](CCc2cc(F)c(C(F)(F)F)c(F)c2)NC(=O)CN(C)C(=O)[C@H](Cc2ccc(C(F)(F)F)cc2)N2CC/C=C\C[C@@H](C2=O)N(C)C(=O)CN(C)C1=O [PP2907]
[1]; [3]
  NRAS /KRAS: AA (a compound having 20 or more is denoted as AA)
HRAS wild-type protein; [4]
  HRAS /KRAS: A (a compound having 10 or more and less than 20 is denoted as A)
[2]
  IC50: 46.3 nM

## CCO[C@@H]1C[C@H]2C(=O)NC3(CC(C)(C)C3)C(=O)N(C)[C@@H](C(CC)CC)C(=O)N(C)[C@H](C(=O)N(C)C)CC(=O)N(C)[C@@H](CC(C)C)C(=O)N[C@@H]([C@@H](C)CC)C(=O)N(C)CC(=O)N(C)[C@H]3C/C=C\CCN(C3=O)[C@@H](Cc3ccc(C(F)(F)F)cc3)C(=O)N(C)CC(=O)N[C@@H](CCc3ccc(C(F)(F)F)c(OC)c3)C(=O)N2C1 [PP2161]
[1]; [5]
  NRAS /KRAS: AA (a compound having 20 or more is denoted as AA)
HRAS wild-type protein; [6]
  HRAS /KRAS: A (a compound having 10 or more and less than 20 is denoted as A)
[2]
  IC50: 12.4 nM

## CCO[C@@H]1C[C@H]2C(=O)NC3(CC(F)(F)C3)C(=O)N(C)[C@@H](C3CCCC3)C(=O)N(C)C(C3CCCCC3)CC(=O)N(C)[C@@H](COC)C(=O)N[C@@H]([C@@H](C)CC)C(=O)N(C)CC(=O)N(C)[C@H]3C/C=C\CCN(C3=O)[C@@H](Cc3ccc(C(F)(F)F)cc3)C(=O)N(C)CC(=O)N[C@@H](CCc3cc(F)c(C(F)(F)F)c(F)c3)C(=O)N2C1 (stereo partly drawn) [PP1586]
[1]; [7]
  NRAS /KRAS: A (a compound having 10 or more and less than 20 is denoted as A)
HRAS wild-type protein; [8]
  HRAS /KRAS: A (a compound having 10 or more and less than 20 is denoted as A)
[2]
  IC50: 85.5 nM

## CCCN1C(=O)CN(C)C(=O)CN(C)C(=O)[C@H](C2CCC2)NC(=O)[C@H](CC(C)C)N(C)C(=O)C[C@@H](C(=O)N2CCOCC2)N(C)C(=O)[C@H](C2CCCC2)N(C)C(=O)C2(CCCC2)NC(=O)[C@@H]2CCCN2C(=O)[C@H](CCc2ccc(C(F)(F)F)c(Cl)c2)NC(=O)CN(C)C(=O)[C@@H]1Cc1ccc(C(F)(F)F)cc1 [PP0250] ([NMeL][Gly(cBu)][Sar][Sar][NPrPhe(4-CF3)][Sar][hPhe(3-Cl-4-CF3)]P[Ac5c][NMeGly(cPent)][NMeD]-Morpholide; lactam N-11)
[1]; [3]
  NRAS /KRAS: B (a compound having 3 or more and less than 10 is denoted as B)
HRAS wild-type protein; [4]
  HRAS /KRAS: C (A compound having a KD ratio of 0.1 or more and less than 3 is denoted as C)
[2]
  IC50: 6.7 nM

## CC[C@H](C)[C@@H]1NC(=O)[C@H](CC)N(C)C(=O)C[C@@H](C(=O)N(C)CC)N(C)C(=O)[C@H](C2CCCC2)N(C)C(=O)C2(CC(C)(C)C2)NC(=O)[C@@H]2C[C@@H](C)CN2C(=O)[C@H](CCc2ccc(C(F)(F)F)c(OC)c2)NC(=O)CN(C)C(=O)[C@H](Cc2ccc(C)cc2)N2CC/C=C\C[C@@H](C2=O)N(C)C(=O)CN(C)C1=O [PP1870]
[1]; [7]
  NRAS /KRAS: A (a compound having 10 or more and less than 20 is denoted as A)
HRAS wild-type protein; [8]
  HRAS /KRAS: A (a compound having 10 or more and less than 20 is denoted as A)
[2]
  IC50: 12.4 nM

## CCO[C@@H]1C[C@H]2C(=O)NC3(CC(C)(C)C3)C(=O)N(C)[C@@H](C3CCCC3)C(=O)N(C)[C@H](C(=O)N(C)C)CC(=O)N(C)[C@@H](CC3CC3)C(=O)N[C@@H]([C@@H](C)CC)C(=O)N(C)CC(=O)N(C)[C@H]3C/C=C\CCN(C3=O)[C@@H](Cc3ccc(C(F)(F)F)cc3)C(=O)N(C)CC(=O)N[C@@H](CCc3ccc(C(F)(F)F)c(OC)c3)C(=O)N2C1 [PP1563]
[1]; [7]
  NRAS /KRAS: A (a compound having 10 or more and less than 20 is denoted as A)
HRAS wild-type protein; [8]
  HRAS /KRAS: A (a compound having 10 or more and less than 20 is denoted as A)
[2]
  IC50: 2.6 nM

## CCO[C@@H]1C[C@H]2C(=O)NC3(CC(C)(C)C3)C(=O)N(C)[C@@H](C(CC)CC)C(=O)N(C)[C@H](C(=O)N3CCCC3)CC(=O)N(C)[C@@H](C)C(=O)N[C@@H]([C@@H](C)CC)C(=O)N(C)CC(=O)N(C)[C@H]3C/C=C\CCN(C3=O)[C@@H](Cc3ccc(C)cc3)C(=O)N(C)CC(=O)N[C@@H](CCc3ccc(C(F)(F)F)c(Cl)c3)C(=O)N2C1 [PP2152]
[1]; [5]
  NRAS /KRAS: AA (a compound having 20 or more is denoted as AA)
HRAS wild-type protein; [6]
  HRAS /KRAS: A (a compound having 10 or more and less than 20 is denoted as A)
[2]
  IC50: 29.4 nM

## CCCC[C@H]1C(=O)N[C@@H]([C@@H](C)CC)C(=O)N(C)CC(=O)N(C)[C@H]2C/C=C\CCN(C2=O)[C@@H](Cc2ccc(C)cc2)C(=O)N(C)CC(=O)N[C@@H](CCc2cc(F)c(C(F)(F)F)c(F)c2)C(=O)N2C[C@H](OCC)C[C@H]2C(=O)NC2(CC(C)(C)C2)C(=O)N(C)[C@@H](C2CCCC2)C(=O)N(C)[C@H](C(=O)N(C)CC)CC(=O)N1C [PP2808]
[1]; [3]
  NRAS /KRAS: B (a compound having 3 or more and less than 10 is denoted as B)
HRAS wild-type protein; [4]
  HRAS /KRAS: B (a compound having 3 or more and less than 10 is denoted as B)
[2]
  IC50: 13.1 nM
